{"source": "patent US20260297679A1", "about": "“ASSAYS FOR MONITORING INHIBITION OF RNA HELICASE DHX9” (ACCENT THERAPEUTICS, INC., priority 2023, published 2026)", "key": {"[1]": {"assay": "Intra-tumoral pharmacokinetics bioanalytical assay", "assay_type": "in vivo, female BALB/c nude mice", "conditions": "BID oral, 21 days; four parameter non-linear regression; FIG. 4C", "procedure": "Intra-tumoral Pharmacokinetics Bioanalytical Assay: Tumors were collected at 1 h and 12 h post the last dose and cut into 3 pieces. One piece of the tumor was weighted and snap frozen for drug exposure analysis. On the assay day, 3 volumes of H2O were added to the tumor tissue (3 mL to each gram of tissue), and homogenate at 4 degrees Celsius. The homogenate (30 μL) was mixed with 15 μL blank solution, then extracted and protein precipitation with 200 μL of acetonitrile containing IS (internal standard, dexamethasone). After vortexed for 30 s, the samples were centrifuged at 4 degrees Celsius, 3900 rpm for 15 minutes. The supernatant was diluted 3 times with water and 2 μL of diluted supernatant was injected into the LC/MS/MS system for quantitative analysis (AB API 5500). The Q1 to Q3 mass transition (m/z, Da) were 393.11 to 373.10 for dexamethasone and 421.98 to 202.30 for test compound. […]\nThe concentration in the homogenate was quantified using standards prepared in control tumor tissues with concentrations range 0.5, 1, 2, 5, 10, 50, 100, 500, 1000 ng/mL. The determined concentration in the tumor homogenate was then back calculated to that in tumor tissue by multiplying with a dilution factor of 4."}, "LS411N tumors": {"tested_on": "LS411N tumors", "assay": "In vivo efficacy study, tumor volume, LS411N xenograft", "design": "species or system human xenograft in female BALB/c nude mice", "conditions": "BID oral, 21 days; FIG. 4B", "procedure": "In vivo Efficacy Study: Experiments were performed in female BALB/c nude mice (GenPharmatech Co.). Animals were allowed to acclimate for 7 days before the study. The general health of the animals were evaluated by a veterinarian, and complete health checks were performed prior to the study. General procedures for animal care and housing were in accordance with the standard, Commission on Life Sciences, National Research Council, Standard Operating Procedures (SOPs) of Pharmaron, Inc. The mice were kept in laminar flow rooms at constant temperature and humidity with 3-5 mice in each cage. Animals were housed in polycarbonate cage which is the size of 300×180×150 mm^3 and in an environmentally monitored, well-ventilated room maintained at a temperature of (23±3° C.) and a relative humidity of 40% 70%. Fluorescent lighting provided illumination approximately 12 hours per day. […]\nThe LS411N (ATCC; CRL-2159) tumor cell lines were maintained in vitro as monolayer in RPMI 1640 medium supplemented with 10% heat inactivated FBS, at 37° C. in an atmosphere of 5% CO2 in air. The tumor cells were sub-cultured, not exceeding 4-5 passages, and cells growing in an exponential growth phase were harvested and counted for tumor inoculation. […]\nThe measurement of tumor size was conducted with a caliper and recorded twice per week. […]"}, "human PBMCs": {"tested_on": "human PBMCs", "assay": "proliferation of human PBMCs (Cell-Titer Glo 2.0)", "assay_type": "cell-based", "conditions": "Compound 1 0.01 μM to 10 μM, 10 days; FIG. 8B", "procedure": "Next, the proliferation of PMBCs was examined following treatment with DHX9 inhibitor using the following assay.\nHuman PBMCs were thawed from a frozen cryotube in a 37° C. water bath and transferred to a flask with medium X-Vivo 15 supplemented with 5% Fetal Bovine Serum (FBS), 1% PenStrep, and 1% Glutamax. Flasks were incubated at 37 C for 30 minutes. PBMCs were harvested from flask and counted. PBMCs were diluted in medium and added to 96 well plates at 100,000 PBMCs per well. A stimulus mixture containing IL-15 at 1 ng/well, IL-21 at 5 ng/well, and CD40L at 5 ng/well was added to each well. Test compounds were prepared in DMSO stock solution and serially diluted. Compound (0.1% final DMSO concentration) was added to each well. DMSO was used as a negative control (high control, HC) and staurosporine was used a positive control (low control, LC). Plates were incubated at 37 C for 0, 2, 4, 6, 8, 10 days. Every other day, medium was replenished with stimulus and diluted compounds.\nAt each CTG time point, plate was removed from incubator and Cell-Titer Glo 2.0 reagent was added to each well according to manufacturer's (Promega) protocol and detected on an Envision. The inhibition activity was calculated following the formula below:\n% Inhibition=100×(ReadoutHC−ReadoutSample)/(ReadoutHC−ReadoutLC)\nPBMCs were exposed to Compound 1 at concentrations ranging from 0.01 μM to 10 μM for 10 days. […]"}}}
{"smiles": "Cc1cccnc1-c1csc(C(=O)Nc2cc(Cl)cc(NS(C)(=O)=O)c2)c1", "note": "[Compound 1, N-(3-chloro-5-methanesulfonamidophenyl)-4-(3-methylpyridin-2-yl)thiophene-2-carboxamide]", "values": [{"measurement": "correlation of tumor drug exposure to circBRIP1 induction", "setting": "[1]", "value": "correlate to circBRIP1 induction"}, {"measurement": "correlation of tumor volume to circBRIP1 induction", "setting": "LS411N tumors", "value": "correlate to circBRIP1 induction"}, {"measurement": "proliferation of PBMCs", "setting": "human PBMCs", "value": "did not inhibit proliferation of PBMCs"}]}
